In BindingDB's records for doi:10.1016/S0960-894X(01)81027-1 (1993):
Counter-ions that a name gives are not always drawn.

Biological target: Sigma non-opioid intracellular receptor 1 (Cavia porcellus) (UniProt Q60492)
Experiment: The compound was evaluated for binding affinity against sigma receptor using [3H]DTG radioligand in guinea pig membranes

Chain of Sigma non-opioid intracellular receptor 1 (Cavia porcellus) (Q60492 whole entry, looked up): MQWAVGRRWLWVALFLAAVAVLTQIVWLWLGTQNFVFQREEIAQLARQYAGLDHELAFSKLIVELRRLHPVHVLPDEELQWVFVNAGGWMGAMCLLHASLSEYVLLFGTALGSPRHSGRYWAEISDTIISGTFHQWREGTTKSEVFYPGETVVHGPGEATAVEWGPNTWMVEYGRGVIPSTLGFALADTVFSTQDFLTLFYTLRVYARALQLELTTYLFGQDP

Row | Structure (SMILES) | IC50 [nM]
1 | CC(=Nc1ccc(Br)cc1C)Nc1ccc(Br)cc1C [N,N'-Bis-(4-bromo-2-methyl-phenyl)-acetamidine] | 26
2 | CC(=NC12CC3CC(CC(C3)C1)C2)NC12CC3CC(CC(C3)C1)C2 [N,N'-Di-adamantan-1-yl-acetamidine] | 16
3 | CC(=Nc1ccccc1C)Nc1ccccc1C [N,N'-Di-o-tolyl-acetamidine; hydrochloride] | 15
4 | CC(=NC12CC3CC(CC(C3)C1)C2)NC1CCCCC1 [N-Adamantan-1-yl-N'-cyclohexyl-acetamidine] | 72
5 | CC(=Nc1ccccc1C)NC1CCCCC1 [N-Cyclohexyl-N'-o-tolyl-acetamidine; hydrochloride] | 9

More lines, in order of falling IC50, values ahead:

Row | IC50 [nM] | Structure (SMILES)
6 | 9 | CC(=Nc1ccccc1C)NC1CC2CCC1C2 (configuration not stated) [N-Bicyclo[2.2.1]hept-2-yl-N'-o-tolyl-acetamidine]
7 | 6 | CC(=Nc1ccccc1C)NC12CC3CC(CC(C3)C1)C2 [N-Adamantan-1-yl-N'-o-tolyl-acetamidine; hydrochloride]
